# Measurements from ChEMBL document CHEMBL1201862, “PubChem BioAssay data set” (2004).
#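 Briefly, cells in 96-well plates were exposed to five compound concentrations for 48 h, and endpoints were estimated by linear interpolation. The concentration for 50% growth inhibition is given as GI50.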 Activity calls are given as the source filed them. No stated cut-off is given here; in the data, active = GI50 up to about 1.1 µM and inactive = higher.
# What was measured:
# Test in all cases: growth of human tumour cells (NCI), 48 h
# TK-10 = test system: TK-10
# MDA-N = test system: MDA-N
# HOP-62 = test system: HOP-62
# MOLT-4 = test system: MOLT-4
# U-251 = test system: U-251
# SR = test system: SR
# Malme-3M = test system: Malme-3M
# CAKI-1 = test system: CAKI-1
# SK-MEL-28 = test system: SK-MEL-28
# COLO 205 = test system: COLO 205
# K562 = test system: K562
# NCI-H23 = test system: NCI-H23
# MDA-MB-231 = test system: MDA-MB-231
# T47D = test system: T47D
# NCI-H460 = test system: NCI-H460
# SN12C = test system: SN12C
# OVCAR-4 = test system: OVCAR-4
# PC-3 = test system: PC-3
# IGROV-1 = test system: IGROV-1
# OVCAR-8 = test system: OVCAR-8
# HT-29 = test system: HT-29
# SW-620 = test system: SW-620
# SF-539 = test system: SF-539
# Hs-578T = test system: Hs-578T
# NCI-H226 = test system: NCI-H226
# RPMI-8226 = test system: RPMI-8226
# ACHN = test system: ACHN
# SNB-75 = test system: SNB-75
# CCRF-CEM = test system: CCRF-CEM
# NCI-H522 = test system: NCI-H522
# LOX IMVI = test system: LOX IMVI
# HCT-15 = test system: HCT-15
# HOP-92 = test system: HOP-92
# NCI/ADR-RES = test system: NCI/ADR-RES
# OVCAR-5 = test system: OVCAR-5
# SNB-19 = test system: SNB-19
# SK-OV-3 = test system: SK-OV-3
# MDA-MB-435 = test system: MDA-MB-435
# DU-145 = test system: DU-145
# SF-268 = test system: SF-268
# 786-0 = test system: 786-0
# KM12 = test system: KM12
# HCC 2998 = test system: HCC 2998
# HCT-116 = test system: HCT-116
# MCF7 = test system: MCF7
# UACC-62 = test system: UACC-62
# OVCAR-3 = test system: OVCAR-3
# SK-MEL-5 = test system: SK-MEL-5
# BT-549 = test system: BT-549
# M14 = test system: M14
# SF-295 = test system: SF-295
# UACC-257 = test system: UACC-257
# HL-60 = test system: HL-60
# A549 = test system: A549
# SK-MEL-2 = test system: SK-MEL-2
# EKVX = test system: EKVX
# RXF 393 = test system: RXF 393
# UO-31 = test system: UO-31
# A498 = test system: A498
smiles,measurement,setting,value
Cc1nn(C(=O)c2ccc(Cl)cc2)c2c1C(c1ccccc1O)SC(=N)N2 (stereo unspecified),GI50,TK-10,> 10 µM (inactive)
same,GI50,MDA-N,> 10 µM (inactive)
same,GI50,HOP-62,> 10 µM (inactive)
same,GI50,MOLT-4,> 10 µM (inactive)
same,GI50,U-251,> 10 µM (inactive)
same,GI50,SR,> 10 µM (inactive)
same,GI50,Malme-3M,> 10 µM (inactive)
same,GI50,CAKI-1,> 10 µM (inactive)
same,GI50,SK-MEL-28,> 10 µM (inactive)
same,GI50,COLO 205,> 10 µM (inactive)
same,GI50,K562,> 10 µM (inactive)
same,GI50,NCI-H23,> 10 µM (inactive)
same,GI50,MDA-MB-231,> 10 µM (inactive)
same,GI50,T47D,> 10 µM (inactive)
same,GI50,NCI-H460,> 10 µM (inactive)
same,GI50,SN12C,> 10 µM (inactive)
same,GI50,OVCAR-4,> 10 µM (inactive)
same,GI50,PC-3,> 10 µM (inactive)
same,GI50,IGROV-1,> 10 µM (inactive)
same,GI50,OVCAR-8,> 10 µM (inactive)
same,GI50,HT-29,> 10 µM (inactive)
same,GI50,SW-620,> 10 µM (inactive)
same,GI50,SF-539,> 10 µM (inactive)
same,GI50,Hs-578T,> 10 µM (inactive)
same,GI50,NCI-H226,> 10 µM (inactive)
same,GI50,RPMI-8226,> 10 µM (inactive)
same,GI50,ACHN,> 10 µM (inactive)
same,GI50,SNB-75,> 10 µM (inactive)
same,GI50,CCRF-CEM,> 10 µM (inactive)
same,GI50,NCI-H522,> 10 µM (inactive)
same,GI50,LOX IMVI,> 10 µM (inactive)
same,GI50,HCT-15,> 10 µM
same,GI50,HOP-92,> 10 µM (inactive)
same,GI50,NCI/ADR-RES,> 10 µM (inactive)
same,GI50,OVCAR-5,> 10 µM (inactive)
same,GI50,SNB-19,> 10 µM (inactive)
same,GI50,SK-OV-3,> 10 µM (inactive)
same,GI50,MDA-MB-435,> 10 µM (inactive)
same,GI50,DU-145,> 10 µM (inactive)
same,GI50,SF-268,> 10 µM (inactive)
same,GI50,786-0,> 10 µM (inactive)
same,GI50,KM12,> 10 µM (inactive)
same,GI50,HCC 2998,> 10 µM (inactive)
same,GI50,HCT-116,> 10 µM (inactive)
same,GI50,MCF7,> 10 µM (inactive)
same,GI50,UACC-62,> 10 µM (inactive)
same,GI50,OVCAR-3,> 10 µM (inactive)
same,GI50,SK-MEL-5,> 10 µM (inactive)
same,GI50,BT-549,> 10 µM (inactive)
same,GI50,M14,> 10 µM (inactive)
same,GI50,SF-295,> 10 µM (inactive)
same,GI50,UACC-257,> 10 µM (inactive)
same,GI50,HL-60,> 10 µM (inactive)
same,GI50,A549,> 10 µM (inactive)
same,GI50,SK-MEL-2,> 10 µM (inactive)
same,GI50,EKVX,> 10 µM (inactive)
same,GI50,RXF 393,> 10 µM (inactive)
COc1cc([N+](=O)[O-])c(S(=O)(=O)O)cc1NS(=O)(=O)c1ccc(C)cc1,GI50,TK-10,> 100 µM (inactive)
same,GI50,MDA-N,> 100 µM (inactive)
same,GI50,HOP-62,> 100 µM (inactive)
same,GI50,MOLT-4,> 100 µM (inactive)
same,GI50,U-251,> 100 µM (inactive)
same,GI50,SR,> 100 µM (inactive)
same,GI50,CAKI-1,> 100 µM (inactive)
same,GI50,SK-MEL-28,> 100 µM (inactive)
same,GI50,COLO 205,> 100 µM (inactive)
same,GI50,K562,> 100 µM (inactive)
same,GI50,NCI-H23,> 100 µM (inactive)
same,GI50,MDA-MB-231,> 100 µM (inactive)
same,GI50,T47D,> 100 µM (inactive)
same,GI50,NCI-H460,> 100 µM (inactive)
same,GI50,SN12C,> 100 µM (inactive)
same,GI50,OVCAR-4,> 100 µM (inactive)
same,GI50,PC-3,> 100 µM (inactive)
same,GI50,IGROV-1,> 100 µM (inactive)
same,GI50,OVCAR-8,> 100 µM (inactive)
same,GI50,HT-29,> 100 µM (inactive)
same,GI50,SW-620,> 100 µM (inactive)
same,GI50,SF-539,> 100 µM (inactive)
same,GI50,Hs-578T,> 100 µM (inactive)
same,GI50,NCI-H226,> 100 µM (inactive)
same,GI50,RPMI-8226,> 100 µM (inactive)
same,GI50,ACHN,> 100 µM (inactive)
same,GI50,SNB-75,> 100 µM (inactive)
same,GI50,CCRF-CEM,> 100 µM (inactive)
same,GI50,NCI-H522,> 100 µM (inactive)
same,GI50,LOX IMVI,> 100 µM (inactive)
same,GI50,HCT-15,> 100 µM
same,GI50,UO-31,> 100 µM (inactive)
same,GI50,NCI/ADR-RES,> 100 µM (inactive)
same,GI50,OVCAR-5,> 100 µM (inactive)
same,GI50,SNB-19,> 100 µM (inactive)
same,GI50,SK-OV-3,> 100 µM (inactive)
same,GI50,MDA-MB-435,> 100 µM (inactive)
same,GI50,DU-145,> 100 µM (inactive)
same,GI50,SF-268,> 100 µM (inactive)
same,GI50,786-0,> 100 µM (inactive)
same,GI50,KM12,> 100 µM (inactive)
same,GI50,HCT-116,> 100 µM (inactive)
same,GI50,MCF7,> 100 µM (inactive)
same,GI50,UACC-62,> 100 µM (inactive)
same,GI50,A498,> 100 µM (inactive)
same,GI50,OVCAR-3,> 100 µM (inactive)
same,GI50,SK-MEL-5,> 100 µM (inactive)
same,GI50,BT-549,> 100 µM (inactive)
same,GI50,M14,> 100 µM (inactive)
same,GI50,SF-295,> 100 µM (inactive)
same,GI50,UACC-257,> 100 µM (inactive)
same,GI50,HL-60,> 100 µM (inactive)
same,GI50,A549,> 100 µM (inactive)
same,GI50,SK-MEL-2,> 100 µM (inactive)
same,GI50,EKVX,> 100 µM (inactive)
Cc1ccc(C(=O)N/N=C(\N=N\c2ccccc2Cl)c2ccc(N(C)C)cc2)cc1,GI50,TK-10,> 100 µM (inactive)
same,GI50,MDA-N,11.5 µM (inactive)
same,GI50,MOLT-4,20 µM (inactive)
same,GI50,U-251,62.1 µM (inactive)
same,GI50,SR,18.1 µM (inactive)
same,GI50,CAKI-1,30.5 µM (inactive)
same,GI50,SK-MEL-28,> 100 µM (inactive)
same,GI50,COLO 205,38.6 µM (inactive)
same,GI50,K562,17.1 µM (inactive)
same,GI50,NCI-H23,50.7 µM (inactive)
same,GI50,MDA-MB-231,52.6 µM (inactive)
same,GI50,T47D,2.64 µM (inactive)
same,GI50,NCI-H460,37.3 µM (inactive)
same,GI50,SN12C,> 100 µM (inactive)
same,GI50,OVCAR-4,7.33 µM (inactive)
same,GI50,PC-3,49 µM (inactive)
same,GI50,IGROV-1,> 100 µM (inactive)
same,GI50,OVCAR-8,61.5 µM (inactive)
same,GI50,HT-29,33.1 µM (inactive)
same,GI50,SW-620,> 100 µM (inactive)
same,GI50,SF-539,21.4 µM (inactive)
same,GI50,Hs-578T,> 100 µM (inactive)
same,GI50,NCI-H226,60.8 µM (inactive)
same,GI50,RPMI-8226,23.7 µM (inactive)
same,GI50,ACHN,13.3 µM (inactive)
same,GI50,CCRF-CEM,16.6 µM (inactive)
same,GI50,NCI-H522,27.5 µM (inactive)
same,GI50,LOX IMVI,43.6 µM (inactive)
same,GI50,HCT-15,30.6 µM
same,GI50,HOP-92,> 100 µM (inactive)
same,GI50,UO-31,29.4 µM (inactive)
same,GI50,NCI/ADR-RES,27.3 µM (inactive)
same,GI50,OVCAR-5,68.4 µM (inactive)
same,GI50,SNB-19,28.1 µM (inactive)
same,GI50,SK-OV-3,20.4 µM (inactive)
same,GI50,MDA-MB-435,10.5 µM (inactive)
same,GI50,DU-145,2.61 µM (inactive)
same,GI50,SF-268,> 100 µM (inactive)
same,GI50,786-0,48.3 µM (inactive)
same,GI50,KM12,21.9 µM (inactive)
same,GI50,HCC 2998,25.1 µM (inactive)
same,GI50,HCT-116,29.2 µM (inactive)
same,GI50,MCF7,28.2 µM (inactive)
same,GI50,UACC-62,4.55 µM (inactive)
same,GI50,OVCAR-3,30.3 µM (inactive)
same,GI50,SK-MEL-5,21.3 µM (inactive)
same,GI50,BT-549,29.3 µM (inactive)
same,GI50,M14,42.7 µM (inactive)
same,GI50,SF-295,28.8 µM (inactive)
same,GI50,UACC-257,27.5 µM (inactive)
same,GI50,HL-60,14.1 µM (inactive)
same,GI50,A549,50.6 µM (inactive)
same,GI50,SK-MEL-2,54.6 µM (inactive)
same,GI50,EKVX,27.2 µM (inactive)
